Measured values reported in patent US20090111894A1, “Method of Preventing Microbial Growth” (priority 2005, published 2009).

Legend:
Format in all cases: cell-based
Zygosaccharomyces bailii = experiment: Inhibition effect in Ice Tea (MIC); settings: Lipton Ice Tea with apple juice, 25° C.
Procedure: (§1) The inhibition effect of Hydroxyacetaldehyde was tested in Ice Tea at various concentrations, at 2 different pH's and against 2 micro-organisms at 25° C. Tested were: • Zygosaccharomyces bailii • Talaromyces trachyspermus
(§2) The medium was Lipton Ice Tea with apple juice. The pH of the medium was set at 4.5 and 6.0, respectively. Hydroxyacetaldehyde concentrations were: 0, 0.0125, 0.025, 0.05, 0.1, 0.2, 0.4 and 0.8%. Growth was recorded by an automated optical density reader NEPHELOstar Galaxy of the manufacturer BMG. The MIC (Minimal Inhibition Concentration) for the different micro-organisms were: […]

[1] = system: Talaromyces trachyspermus; experiment: Inhibition effect in Ice Tea (MIC); settings: Lipton Ice Tea with apple juice, 25° C.
Procedure: as §1, §2

Bacteria = experiment: Reduction of organisms in corrugated board pulp; settings: pulp at 20° C.
Procedure: (§3) Contamination with moulds and bacteria is known to be serious problem for corrugated board. Hydroxyacetaldehyde was added to the corrugated board pulp during production to determine if it would be possible to produce a mould-free corrugated board.
(§4) To 40 gram of small pieces of cut corrugated board 300 ml of sterile water was added. This was mixed to form a pulp. This pulp was divided into 3 portions to which 0, 0.5 and 2% hydroxyacetaldehyde was added. The pulp was incubated at 20° C. and after 0, 2, 5 and 22 hours the number of organisms per gram pulp was measured. The reduction factor (cfu at to/cfu at tn) was as follows: […]

Moulds = experiment: Reduction of organisms in corrugated board pulp; settings: pulp at 20° C.
Procedure: as §3, §4

Bacillus subtilus = experiment: Inhibition effect in model media (MIC), optical density growth reading; settings: BHI, 30° C., weight/volume
Procedure: (§5) The inhibition effect of Hydroxyacetaldehyde was tested in model media at various concentration levels and at 3 different pH's and against various micro-organisms at 30° C.
(§6) The medium was Brain Heart Infusion Broth (BHI) or Malt Water. Tested were: • Bacillus subtilus in BHI • Echerichia coli in BHI • Staphylococcus aureus in BHI • Saccharomyces cerevisieae in Malt water • Penicillium crustosum in Malt water
(§7) The pH of the media was set in the medium to 4.5 5.0 and 6.0, respectively. Hydroxyacetaldehyde concentrations were: 0, 0.0125, 0.025, 0.05, 0.1, 0.2, and 0.4%. Growth was recorded by an automated Optical Density reader (NEPHELOstar Galaxy of the manufacturer BMG).

Echerichia coli = experiment: as above; settings: BHI, 30° C., weight/volume
Procedure: as §5, §6, §7

Staphylococcus aureus = experiment: as above; settings: BHI, 30° C., weight/volume
Procedure: as §5, §6, §7

Penicillium crustosum = experiment: as above; settings: Malt water, 30° C., weight/volume
Procedure: as §5, §6, §7

Candida parapsilosis = experiment: as above; settings: 30° C., weight/volume
[2] = 0.5 hydroxyacetaldehyde, incubation 2 hours
[3] = 0.5 hydroxyacetaldehyde, incubation 5 hours
[4] = 0.5 hydroxyacetaldehyde, incubation 22 hours
[5] = 2% hydroxyacetaldehyde, incubation 2 hours
[6] = 2% hydroxyacetaldehyde, incubation 5 hours
[7] = 2% hydroxyacetaldehyde, incubation 22 hours

For O=CCO [Hydroxyacetaldehyde], the “MIC (Minimal Inhibition Concentration)” value (Zygosaccharomyces bailii; pH 4.5) was 0.8%, the “MIC (Minimal Inhibition Concentration)” value (Zygosaccharomyces bailii; pH 6) was 0.8% and the “MIC (Minimal Inhibition Concentration)” value ([1]; pH 4.5) was 0.1%. For the same compound, the “MIC (Minimal Inhibition Concentration)” value ([1]; pH 6) was 0.1%, the “reduction factor (cfu at to/cfu at tn)” value (Bacteria; [2]) was 3.8 and the “reduction factor (cfu at to/cfu at tn)” value (Bacteria; [3]) was 4.1. The “reduction factor (cfu at to/cfu at tn)” value (Bacteria; [4]) was 25.5, the “reduction factor (cfu at to/cfu at tn)” value (Bacteria; [5]) was 7.4 and the “reduction factor (cfu at to/cfu at tn)” value (Bacteria; [6]) was 26.4. For the same compound, the “reduction factor (cfu at to/cfu at tn)” value (Bacteria; [7]) was greater than 1.4e4, the “reduction factor (cfu at to/cfu at tn)” value (Moulds; [2]) was 20 and the “reduction factor (cfu at to/cfu at tn)” value (Moulds; [3]) was 40. The “reduction factor (cfu at to/cfu at tn)” value (Moulds; [4]) was greater than 40, the “reduction factor (cfu at to/cfu at tn)” value (Moulds; [5]) was greater than 40 and the “reduction factor (cfu at to/cfu at tn)” value (Moulds; [6]) was greater than 40. The “reduction factor (cfu at to/cfu at tn)” value (Moulds; [7]) was greater than 40, the “MIC (Minimal Inhibition Concentration)” value (Bacillus subtilus; pH 4.5) was 0.1% and the “MIC (Minimal Inhibition Concentration)” value (Bacillus subtilus; pH 5) was 0.1%. The “MIC (Minimal Inhibition Concentration)” value (Bacillus subtilus; pH 6) was 0.1%, the “MIC (Minimal Inhibition Concentration)” value (Echerichia coli; pH 4.5) was 0.1% and the “MIC (Minimal Inhibition Concentration)” value (Echerichia coli; pH 5) was 0.1%. For the same compound, the “MIC (Minimal Inhibition Concentration)” value (Echerichia coli; pH 6) was 0.1%, the “MIC (Minimal Inhibition Concentration)” value (Staphylococcus aureus; pH 4.5) was 0.05% and the “MIC (Minimal Inhibition Concentration)” value (Staphylococcus aureus; pH 5) was 0.05%. The “MIC (Minimal Inhibition Concentration)” value (Staphylococcus aureus; pH 6) was 0.05%, the “MIC (Minimal Inhibition Concentration)” value (Penicillium crustosum; pH 4.5) was 0.1% and the “MIC (Minimal Inhibition Concentration)” value (Penicillium crustosum; pH 6) was 0.1%. The “MIC (Minimal Inhibition Concentration)” value (Candida parapsilosis; pH 4.5) was 0.2% and the “MIC (Minimal Inhibition Concentration)” value (Candida parapsilosis; pH 6) was 0.2%.
